Assay results taken from patent US11254986B2, “Gene signature for immune therapies in cancer” (ALMAC DIAGNOSTICS LIMITED, priority 2015, dated 2022).

How the values were obtained:
Format in all cases: cell-based
cGAS bound to Histone H3 = test: Co-immunoprecipitation of cGAS with Histone H3 in cytosolic fraction; conditions: HeLa cells, not observed in DMSO treated control, FIG. 18B
Description: Cells were fractionated using Buffer A (10 mM Hepes pH7.4; […] MgCl2, 10 mM NaCl, 0.1% NP-40, Protease and Phosphatase inhibitors) and Buffer C (10 mM Hepes pH7.4; […], 420 mM NaCl, 0.1% NP-40, Protease and Phosphatase inhibitors). Cells were cultured at ˜70% confluency. Cells were then removed in PBS using a cell scraper and transferred to an Eppendorf. Following centrifugation at 1000 rpm at 4° C. for 5 minutes, cell pellets were resuspended in 350 μl Buffer A. Cells were lysed on ice for twenty minutes, following which samples were centrifuged at 12000 rpm for 2 minutes. Supernatants were removed, and spun a further two times at 12000 rpm for 2 minutes. The supernatant (cytoplasmic fraction) was carefully removed and stored at −80° C. until quantification using the BCA Assay (Pierce, Rockford, Ill., USA) according to manufacturer's instructions using a plate reader. The remaining pellet was washed ×1 in Buffer A, then centrifuged at 12000 rpm for 2 minutes. […] Samples were then centrifuged at 12000 rpm for two minutes to remove debris, and supernatant (nuclear fraction) stored at −80° C. until quantification as described above.
Cytoplasmic fractions were prepared as described above. […] Results were then visualized and recorded using Luminata Crescendo Western HRP substrate (Millipore, UK) and an alpha imager.

[1] = tested on: CXCL10 and CCL5 expression; test: qRT-PCR of chemokine expression after DNA damaging agents, paclitaxel or nocodazole; conditions: HeLa, HCC1937 EV and MDA-MB-436 EV cells; IC-50 doses; compared to DMSO control; FIG. 14
Description: Reverse transcription was performed using the First Strand cDNA synthesis kit (Roche). 500 ng of RNA was reverse transcribed according to manufacturer's instructions. Exon-spanning qPCR primers were designed using Roche Universal Probe Library Assay Design Centre and were used at a concentration of 0.5 μM. The following primer sequences were used:
To preform absolute quantification from qPCR, we used a standard curve method. The efficiency of each primer set was derived from the standard curve using the following equation: E=10^(−1/slope)
The product of Reverse Transcription was diluted 1:10 in Nuclease Free Water (NFW). Each 10 μl PCR reaction, consisted of 0.5 μl of 10 μM Forward primer, 0.5 μl of 10 μM Reverse primer, 5 μl of 2× LightCycler® 480 SYBR Green I Master mix (Roche), 1.5 μl NFW and 2.5 μl diluted Reverse Transcription product. These 10 μl reactions were pipetted into wells of a LightCycler® 480 multiwell 96 plate (Roche), the plate was then sealed using clear adhesive film (Roche). The plate was placed into the LightCycler® 480 (Roche) and run with the following protocol. (95° C. for 10 mins, 45 cycles of; 95° C. for 15 secs, 55° C. for 30 secs and 72° C. for 30 secs, finishing with a melt curve for confirmation of primer specificity. All qPCR data was analysed using the LightCycler® 480 software provided by Roche. For analysis, the Cp value from a technical duplicate was calculated and the relative amount of a gene was calculated Cp value to an in-run standard curve. Each mean value was then normalised to the mean concentration of the housekeeping gene PUM1 within the corresponding sample, by dividing the concentration of the target gene by the concentration of the house keeping gene. Relative expression refers to the gene expression levels that have been normalised to the housekeeping gene and made relative to the associated control samples. From these normalized values, the fold changes for each gene were calculated and the average of three individual fold changes were derived from three independent experimental triplicates. The unpaired, two-tailed students T-test available on GraphPad Prism 5.0 software was used to detect statistical significance.
For analysis of effects of ATM, ATR and DNAPK on cytokine expression, cells were seeded in six well plates at ˜60% confluency. Following incubation overnight, small molecule inhibitors of ATM (Ku60019, Selleck Chem) at a dose of 1 μm, ATR (ETP46464, Selleck Chem) at a dose of 5 μm and DNAPK (Nu7441, Selleck Chem) at a dose of 5 μm were added. At 24 hours, RNA and protein samples were obtained for analysis. For analysis of the effects of DNA damaging agents and paclitaxel on cytokine expression, cells were seeded in six well plates at ˜60% confluency. […]

[2] = tested on: HeLa, HCC1937 EV and MDA-MB-436 EV cells; test: Cell cycle analysis (propidium iodide, flow cytometry); conditions: HeLa, HCC1937 EV and MDA-MB-436 EV cells; IC-50 doses; FIG. 14
Description: For analysis of effects of ATM, ATR and DNAPK on cytokine expression, cells were seeded in six well plates at ˜60% confluency. Following incubation overnight, small molecule inhibitors of ATM (Ku60019, Selleck Chem) at a dose of 1 μm, ATR (ETP46464, Selleck Chem) at a dose of 5 μm and DNAPK (Nu7441, Selleck Chem) at a dose of 5 μm were added. At 24 hours, RNA and protein samples were obtained for analysis. For analysis of the effects of DNA damaging agents and paclitaxel on cytokine expression, cells were seeded in six well plates at ˜60% confluency. Following incubation overnight, IC50 doses of Cisplatin and Paclitaxel (obtained from fresh Pharmacy stock) and Hydroxyurea (Sigma Aldrich) were added for 24 hours to 48 hours. At the appropriate timepoint, RNA and protein samples were obtained for analysis.
Cells were trypsinised and fixed in 70% ethanol, incubated with RNase A and propidium iodide (P1) and analysed using a BD FACSCalibur™ (BD Biosciences, CA, USA). Data was analysed using Flow Jo software to perform cell cycle analysis.

Structure (SMILES) | binding of cGAS to Histone H3 (co-IP) (cGAS bound to Histone H3) | CXCL10 and CCL5 relative expression [1] | cell cycle distribution [2]
NC(=O)NO [hydroxyurea, Hydroxyurea] | cGAS was again bound to Histone H3 | upregulation of CXCL10 and CCL5 expression was stimulated in all cell lines | increased proportion of cells in S phase
N.N.[Cl][Pt][Cl] [cisplatin] | cGAS was again bound to Histone H3 | upregulation of CXCL10 and CCL5 expression was stimulated in all cell lines | increased proportion of cells in S phase
